The values below come from patent publication US9951081B1, “Chlorin e6 derivative and pharmaceutically acceptable salt thereof and process for preparing and use of the same” (priority 2016, dated 2018).

Molecules are shown by their SMILES. pIC50: −log10 of the molar value. Read-outs that look alike come from different tables or passages of the source.

In assay [1] the test system is mice melanoma cell (B16-F10). As to the kind of experiment: In vitro darktoxicity and PDT killing effect (CCK-8), B16-F10. The format is cell-based. The text has this: (§1) Human non-small cell lung cancer cellA549 and mice melanoma cell B16-F10 provided by Cell bank of Shanghai in Chinese Academy of Sciences were selected as cell strains.
(§2) 660 nm semiconductor laser therapeutic equipments manufactured by Baifei biomedical company of Shanghai was selected as a laser light source, with the largest output power of 2 W.
(§3) 1) Cell strains of tumors: culture of human non-small cell lung cancer cell (A549) and mice melanoma cell (B16-F10): frozen cells were taken out of liquid nitrogen, placed in a water bath at […]. […] The medium was renewed once every two days.
(§4) 2) Preparation of reagents: compounds of the present application to be tested and positive control drug Talaporfin were dissolved in a suitable amount of 0.1 M NaOH, adjusted pH to 7.4 by 0.1 M HCl. Normal saline was added to prepare drug stock solution in a suitable concentration.
(§5) 3) Detecting darktoxicity and PDT killing effects to the two tumor cells of compounds to be tested and positive control drug: 100 μL of 5×10^3/mL cell suspension was added into each well of 96-well plate, placed in a incubator at 37° C., 5% CO2 for 24 h. after removing cell medium, fresh mediums containing different concentration of samples were added, opened with three complex holes, and incubated for 24 h at 37° C. and 5% CO2 (volume concentration). After adding fresh medium, no light irradiated (darktoxicity) or 660 nm wavelength laser was used to irradiate (light dose was 8 J/cm^2) (phototoxicity). Cells were incubated for another 24 h. Cell medium containing drugs were removed and fresh medium was added. 200 μL medium containing 10% (v/v) CCK-8 (Dojindo Laboratories, Japan) was added into each well, and incubated for 1.5 h. Microplate reader (Tecan, Switzerland) was used to measure absorbance of each well at a wavelength of 450 nm.

Assay [2] has as its system human non-small cell lung cancer cell (A549). As to the kind of experiment: In vitro darktoxicity and PDT killing effect (CCK-8), A549. The format is cell-based.
Text: as §1, §2, §3, §4, §5

The mark [3] stands for this setting: 660 nm laser, light dose 8 J/cm^2, read-out: Phototoxicity (IC50).
Where [4] appears, read: no light irradiated, 24 h drug incubation, read-out: Darktoxicity (IC50).

As a reminder, the pIC50 is the IC50 on a negative log10 scale, so that one unit is a factor of ten. As to `CCC1=C(C)c2cc3[nH]c(cc4nc(c(CC(=O)N[C@@H](CCCCN)C(=O)O)c5[nH]c(cc1n2)c(C)c5C(=O)O)C(CCC(=O)O)C4C)c(C)c3C(C)OCCCCOC` (stereo partly drawn) [I25, N-[3-[1-(4-methoxy)butoxy]ethyl-3-devinylchlorine6-15^2-acyl]-L-lysine], the “Ratio of Darktoxicity and Phototoxicity” value stood at 140.15 in assay [1] and 222.06 in assay [2]. Also, the pIC50 in assay [1] (setting [3]) is 5.94; in assay [1] (setting [4]) it was 3.79; in assay [2] (setting [3]) it was 5.97; in assay [2] (setting [4]) it was 3.62.
As to `CCCOC(C)c1c(C)c2cc3nc(c(CC(=O)N[C@@H](CC(=O)O)C(=O)O)c4[nH]c(cc5nc(cc1[nH]2)C(C)=C5CC)c(C)c4C(=O)O)[C@@H](CCC(=O)O)[C@@H]3C` (stereo partly drawn) [I2, N-[3-(1-n-propoxyl)ethyl-3-devinylchlorine6-15^2-acyl]-L-aspartic acid], the “Ratio of Darktoxicity and Phototoxicity” value is reported as 125.73 in assay [1] and over 288.46 in assay [2]. Moreover, the pIC50 is 5.83 in assay [1] (setting [3]), 3.73 in assay [1] (setting [4]), 5.98 in assay [2] (setting [3]) and under 3.52 in assay [2] (setting [4]).
Regarding `CCC1=C(C)c2cc3[nH]c(cc4nc(c(CC(=O)N[C@@H](CCCCN)C(=O)O)c5[nH]c(cc1n2)c(C)c5C(=O)O)[C@@H](CCC(=O)O)[C@@H]4C)c(C)c3C(C)OCCOC` (stereo partly drawn) [I22, N-[3-[1-(2-methoxy)ethyoxyl]ethyl-3-devinylchlorine6-15^2-acyl]-L-lysine], the “Ratio of Darktoxicity and Phototoxicity” value is listed as 89.24 in assay [1] and 175.76 in assay [2]. Moreover, the pIC50 in assay [1] (setting [3]) was 5.72; in assay [1] (setting [4]), 3.77; in assay [2] (setting [3]) it was 5.83; in assay [2] (setting [4]), 3.59.
